Data reported in patent US20230085307A1, “PYRIDAZINONE COMPOUND AND HERBICIDE” (NISSAN CHEMICAL CORPORATION, priority 2019, published 2023).

Tests used:
Conditions in all cases: amount of applied herbicide 320 g/ha
rice flat sedge = test: Test Example 3: herbicidal effect by foliage application, Wagner pot (Table 18, symbol E); assay type: in vivo, rice flat sedge (Cyperus iria)
Summary of the method: (§1)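 Plants were sown in alluvial soil held under 0.1–0.5 cm standing water and grown 14 days in a greenhouse at 25–30 °C. An emulsifiable formulation, water-diluted to the set dose, was then sprayed onto the foliage, and effects were scored three weeks later using previously defined criteria.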

southern crabgrass = test: Test Example 4: herbicidal effect by soil treatment (Table 19, symbol F); assay type: in vivo, southern crabgrass (Digitaria ciliaris)
Summary of the method: (§2)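 Emulsion of test compound, water-diluted to predetermined amount, sprayed on soil after sowing (seed depth ~1.5 cm, sterilized diluvial soil). Greenhouse, 25–30° C. Effect graded at three weeks post-spray.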

green foxtail = test: Test Example 4: herbicidal effect by soil treatment (Table 19, symbol G); assay type: in vivo, green foxtail (Setaria viridis)
Summary of the method: as §2

Chinese sprangletop = test: Test Example 3: herbicidal effect by foliage application, Wagner pot (Table 18, symbol D); assay type: in vivo, chinese sprangletop (Leptochloa chinensis)
Summary of the method: as §1

lambsquarters = test: Test Example 4: herbicidal effect by soil treatment (Table 19, symbol O); assay type: in vivo, lambsquarters (Chenopodium album)
Summary of the method: as §2

barnyard grass [1] = test: Test Example 3: herbicidal effect by foliage application, Wagner pot (Table 18, symbol H); assay type: in vivo, barnyard grass (Echinochloa crus-galli)
Summary of the method: as §1

Italian ryegrass = test: Test Example 4: herbicidal effect by soil treatment (Table 19, symbol K); assay type: in vivo, Italian ryegrass (Lolium multiflorum)
Summary of the method: as §2

chickweed = test: Test Example 4: herbicidal effect by soil treatment (Table 19, symbol P); assay type: in vivo, common chickweed (Stellaria media)
Summary of the method: as §2

barnyard grass [2] = test: Test Example 4: herbicidal effect by soil treatment (Table 19, symbol H); assay type: in vivo, barnyard grass (Echinochloa crus-galli)
Summary of the method: as §2

blackgrass = test: Test Example 4: herbicidal effect by soil treatment (Table 19, symbol J); assay type: in vivo, blackgrass (Alopecurus myosuroides)
Summary of the method: as §2

windgrass = test: Test Example 4: herbicidal effect by soil treatment (Table 19, symbol L); assay type: in vivo, windgrass (Apera spica-venti)
Summary of the method: as §2

redroot pigweed = test: Test Example 4: herbicidal effect by soil treatment (Table 19, symbol N); assay type: in vivo, redroot pigweed (Amaranthus retroflexus)
Summary of the method: as §2

wild oat = test: Test Example 4: herbicidal effect by soil treatment (Table 19, symbol I); assay type: in vivo, wild oat (Avena fatua)
Summary of the method: as §2

velvetleaf = test: Test Example 4: herbicidal effect by soil treatment (Table 19, symbol M); assay type: in vivo, velvetleaf (Abutilon theophrasti)
Summary of the method: as §2

persian speedwell = test: Test Example 4: herbicidal effect by soil treatment (Table 19, symbol R); assay type: in vivo, Persian speedwell (Veronica persica)
Summary of the method: as §2

| SMILES | herbicidal effect on E: rice flat sedge (rice flat sedge) | herbicidal effect, F: southern crabgrass (southern crabgrass) | herbicidal effect, G: green foxtail (green foxtail) | herbicidal effect on D: Chinese sprangletop (Chinese sprangletop) | herbicidal effect, O: lambsquarters (lambsquarters) | herbicidal effect on H: barnyard grass (barnyard grass [1]) | herbicidal effect, K: Italian ryegrass (Italian ryegrass) | herbicidal effect, P: chickweed (chickweed) | herbicidal effect, H: barnyard grass (barnyard grass [2]) | herbicidal effect, J: blackgrass (blackgrass) | herbicidal effect, L: windgrass (windgrass) | herbicidal effect, N: redroot pigweed (redroot pigweed) | herbicidal effect, I: wild oat (wild oat) | herbicidal effect, M: velvetleaf (velvetleaf) | herbicidal effect, R: persian speedwell (persian speedwell) |
| --- | --- | --- | --- | --- | --- | --- | --- | --- | --- | --- | --- | --- | --- | --- | --- |
| COc1ccc(F)c(-c2sc3ccc(F)cc3c2-c2c(O)c(C)nn(C)c2=O)c1 [2-366] | 3 (Herbicidal rate of 40% or more and less than 70%) | 3 (Herbicidal rate of 40% or more and less than 70%) | 0 (Herbicidal rate of 5% or less (almost no effect)) | 0 (Herbicidal rate of 5% or less (almost no effect)) | 2 (Herbicidal rate of 20% or more and less than 40%) | 3 (Herbicidal rate of 40% or more and less than 70%) | 4 (Herbicidal rate of 70% or more and less than 90%) | 3 (Herbicidal rate of 40% or more and less than 70%) | 0 (Herbicidal rate of 5% or less (almost no effect)) | 2 (Herbicidal rate of 20% or more and less than 40%) | 0 (Herbicidal rate of 5% or less (almost no effect)) | 4 (Herbicidal rate of 70% or more and less than 90%) | 0 (Herbicidal rate of 5% or less (almost no effect)) | 0 (Herbicidal rate of 5% or less (almost no effect)) | 3 (Herbicidal rate of 40% or more and less than 70%) |
| Cc1nn(C)c(=O)c(-c2c(-c3cnccc3F)sc3ccc(F)cc23)c1O [2-383] | 5 (Herbicidal rate of 90% or more (almost completely withered)) | 4 (Herbicidal rate of 70% or more and less than 90%) | 4 (Herbicidal rate of 70% or more and less than 90%) | 5 (Herbicidal rate of 90% or more (almost completely withered)) | 4 (Herbicidal rate of 70% or more and less than 90%) | 5 (Herbicidal rate of 90% or more (almost completely withered)) | 4 (Herbicidal rate of 70% or more and less than 90%) | 4 (Herbicidal rate of 70% or more and less than 90%) | 3 (Herbicidal rate of 40% or more and less than 70%) | 4 (Herbicidal rate of 70% or more and less than 90%) | 3 (Herbicidal rate of 40% or more and less than 70%) | 5 (Herbicidal rate of 90% or more (almost completely withered)) | 3 (Herbicidal rate of 40% or more and less than 70%) | 4 (Herbicidal rate of 70% or more and less than 90%) | 5 (Herbicidal rate of 90% or more (almost completely withered)) |
